# T1: VEGF-A (Homo sapiens, UniProt P15692)
# T1 sequence (P15692 207-395): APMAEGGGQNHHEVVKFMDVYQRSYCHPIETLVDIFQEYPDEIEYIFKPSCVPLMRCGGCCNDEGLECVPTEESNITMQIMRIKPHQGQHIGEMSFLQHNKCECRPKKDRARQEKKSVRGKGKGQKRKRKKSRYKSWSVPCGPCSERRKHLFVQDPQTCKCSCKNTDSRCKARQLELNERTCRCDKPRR
# B1: Sema3A: secreted class 3 semaphorin ligand binding to neuropilin (protein)
# chain: NYQNGKNNVPRLKLSYKEMLESNNVITFNGLANSSSYHTFLLDEERSRLYVGAKDHIFSFDLVNIKDFQKIVWPVSYTRRDECKWAGKDILKECANFIKVLKAYNQTHLYACGTGAFHPICTYIEIGHHPEDNIFKLENSHFENGRGKSPYDPKLLTASLLIDGELYSGTAADFMGRDFAIFRTLGHHHPIRTEQHDSRWLNDPKFISAHLISESDNPEDDKVYFFFRENAIDGEHSGKATHARIGQICKNDFGGHRSLVNKWTTFLKARLICSVPGPNGIDTHFDELQDVFLMNFKDPKNPVVYGVFTTSSNIFKGSAVCMYSMSDVRRVFLGPYAHRDGPNYQWVPYQGRVPYPRPGTCPSKTFGGFDSTKDLPDDVITFARSHPAMYNPVFPMNNRPIVIKTDVNYQFTQIVVDRVDAEDGQYDVMFIGTDVGTVLKVVSIPKETWYDLEEVLLEEMTVFREPTAISAMELSTKQQQLYIGSTAGVAQLPLHRCDIYGKACAECCLARDPYCAWDGSACSRYFPTAKRRTRRQDIRNGDPLTHCSDLHHDNHHGHSPEERIIYGVENSSTFLECSPKSQRALVYWQFQRRNEERKEEIRVDDHIIRTDQGLLLRSLQQKDSGNYLCHAVEHGFIQTLLKVTLEVIDTEHLEELLHKDDDGDGSKTKEMSNSMTPSQKVWYRDFMQLINHPNLNTMDEFCEQVWKRDRKQRRQRPGHTPGNSNKWKHLQENKKGRNRRTHEFERAPRSV
# How the values were obtained:
# [1] = tested on: retinal neovascularization; experiment: Oxygen-induced retinopathy (OIR) model, retinal neovascularization (isolectin B4, tufts); format: in vivo, C57BL/6 mice; conditions: 10 μg/eye intraocular; FIG. 12B
# Method: (§1) Mice burn by crossbreeding of 7- to 8-week old C57BL/6 purchased from Koatech were used as experimental animals. On day 7 after birth, mice (postnatal day 7, P7) were placed in an oxygen chamber, and the oxygen concentration in the chamber was adjusted and maintained at 75% (hyperoxia) for 5 days (P7 to P11). The illumination in the laboratory was turned on or off every 12 hours and the temperature was maintained at 24±2° C. The mice were fed with free access to feed and drinking water. After 5 days, the mice were exposed to inner air (normoxia) out of the chamber for 5 days (P12-P17) to induce retinal angiogenesis. For drug administration, the mice were randomly divided into five groups (10 mice per group) immediately after the exposure to normoxia on P12, as shown in Table 7. Drugs were administered intraocularly at concentrations appropriate for respective groups using Hamilton syringe (Hamilton, USA). The same amount of vehicle was administered to the OIR group, and 10 μg/eye of ranibizumab was administered as control drug. Subjects with surgical damage caused by drug administration or subjects with lens opacities or the like were excluded from subsequent experiment procedures.
# In addition, the extent of neovascularization in the retina was also evaluated. […]
# [2] = Ex-vivo ocular penetration model, extracted eyeballs immersed in FITC-conjugated protein; format: in vitro ADME, C57BL/6 mouse; conditions: confocal microscope; FIG. 8E
# Method: The eyeballs were fixed at 4° C. for 4 hours using Davidson's solution (glacial acetic acid:ethyl alcohol:neutralized formalin:distilled water=1:3:2:3), and then the anterior tissue of the conjunctiva was partially cut with scissors, and the retinal metaplasia was minimized in a paraffin slide preparation step. After overnight fixation at 4° C. using 10% (v/v) formalin solution, moisture was removed from the tissues by increasing the concentration of alcohol from low to high concentration using an automatic infiltration machine, followed by transparency with xylene and then paraffin penetration. The paraffin penetration-completed tissue was placed in a base mold to make a paraffin block, and 4 sections were prepared using a microtome. The paraffin sections were unfolded to be attached to slides pre-coated with albumin, poly-L-lysine, and saline in a floating constant-temperature water bath. The tissue slides were deparaffinized and then directly mounted, and then FITC was observed using a confocal microscope to investigate the ocular tissue penetration and distribution.
# Thereafter, while unconjugated FITC was removed using PD-10 desalting column, the buffer was changed with PBS, and then the purified product was quantified, and used as a sample for efficacy evaluation.
# vascular leakage = experiment: Oxygen-induced retinopathy (OIR) model, vascular leakage (dextran fluorescence extravasation); format: in vivo, C57BL/6 mice; conditions: 10 μg/eye intraocular on P12, evaluated P17; FIG. 11A
# Method: as §1
# The degree of retinal edema was evaluated on day 17 after birth. […] The amount of fluorescence extravasated out of vessels was quantitatively analyzed using Image J.
# [3] = half-dose (250 μg) dropped 6 times at 2 hour intervals in rabbits; cited from earlier work
# [4] = tested on: choroidal neovascularization; experiment: Laser-induced choroidal neovascularization (CNV) model; format: in vivo, Brown Norway (BN) rats; conditions: 100 μg/eye intraocular, 10 days after administration; FIG. 10B
# Method: Seven-week old male Brown Norway (BN) rats (SLC Japan, Tokyo, Japan) were acclimated for one week, and then anesthetized by peritoneal injection of pentobarbital sodium (Hanlim Pharm, 25 mg/kg). Thereafter, the pupil was dilated with 1% tropicamide eye drops, and then six photocoagulation spots were formed around the optic nerve head using a diode laser (wavelength, 532 nm; diameter, 100 μm; power, 150 mW; time period, 0.1 sec). The destruction of Bruch's membrane was verified by the formation of characteristic bubbles. The eyeballs with hemorrhage or no bubbles were excluded from the subsequent experimental procedures. Drugs were administered intraocularly at concentrations appropriate for respective groups using Hamilton syringe (Hamilton, USA). The same amount of vehicle was administered to the CNV group, and 100 μg/eye of ranibizumab was administered as control drug. Subjects with surgical damage caused by drug administration or subjects with lens opacities or the like were excluded from subsequent experimental procedures.
# The degree of choroidal neovascularization was evaluated 10 days after drug administration. The eyeball of each rat was extracted, and then incised at a region adjacent to the cornea and sclera under a microscope. […] The sizes of subretinal neovascular areas were analyzed using Image J software (NIH, USA).
# [5] = tested on: corneal neovascularization; experiment: Corneal neovascularization resistance model; format: in vivo, C57BL/6 mice; conditions: eye drops for 10 days from 10 days after alkaline burn; FIG. 7B
# Method: The 6-week old female C57BL/6 mice were used. After anesthesia (Zoletil 40 mg/kg+Rompun 5 mg/kg, IP), the NaOH filter paper was placed on the left eye cornea to induce an alkaline burn for 30 seconds, followed by sufficient washing with 40 ml of PBS, thereby constructing corneal neovascularization animal models. […] Each drug was administered through eye drops at a concentration of 5 mg/ml with 5 μl each time, four times a day for 5 days. After the completion of the administration, the eyeballs were extracted, immersed and fixed in 4% paraformaldehyde solution for one hour, and washed with PBS, and then the cornea was isolated using a dissecting microscope. The isolated cornea was additionally fixed in a 4% paraformaldehyde solution for 12 hours. The fixed cornea was washed with PBS, and subjected to reaction in a blocking buffer (PBS, 0.3% BSA, 0.1% Triton X100) at room temperature for 2 hours. A primary antibody (BD Pharmingen) specific to PECAM-1 (CD31) as a vascular endothelial marker and a primary antibody (Millipore) specific to NG-2 as a pericyte marker were reacted overnight in a refrigerator, and secondary fluorescent antibodies (Alexa Fluor488, Alexa Fluor594, Life Technologies) were reacted at room temperature for 4 hours for tissue staining. […]
# macular degeneration = conditions: cited from earlier work
# [6] = cited from earlier work
# VEGF-A = target: T1, VEGF-A; conditions: designed property, versus ranibizumab; cited from earlier work
# neuropilin 1 (NRP 1) = experiment: SPR (Biacore 2000) assay of binding ability to neuropilin 1 receptor; conditions: Table 4, receptor NRP 1, read-out: Affinity, KD
# Method: First, the affinity to a neuropilin receptor was performed on neuropilin 1 (NRP 1). Specifically, surface plasmon resonance (SPR) was performed using Biacore 2000 (GE Healthcare) in order to investigate the binding ability of TPP to the neuropilin 1 domain. Specifically, each neuropilin 1 domain was diluted in 10 mM Na-acetate buffer (pH 4.0), and fixed on CMS sensor chip (GE Healthcare, USA) at about 1,000 response units (RU). […] After the association/dissociation analysis, the CMS chip was regenerated by allowing buffer (20 mM NaOH, 1M NaCl, pH 10.0) to flow at a flow rate of 30 μl/min for 1 minute.
# After the Biacore CMS chip was activated with EDC/NHS mixture, target protein NRP1 was diluted in a fixing buffer (10 mM sodium acetate, pH 5.5), and fixed to final 79 Ru through calculation at Rmax: 200.
# Sequence of neuropilin 1 (NRP 1) (O14786 273-586 limits assumed): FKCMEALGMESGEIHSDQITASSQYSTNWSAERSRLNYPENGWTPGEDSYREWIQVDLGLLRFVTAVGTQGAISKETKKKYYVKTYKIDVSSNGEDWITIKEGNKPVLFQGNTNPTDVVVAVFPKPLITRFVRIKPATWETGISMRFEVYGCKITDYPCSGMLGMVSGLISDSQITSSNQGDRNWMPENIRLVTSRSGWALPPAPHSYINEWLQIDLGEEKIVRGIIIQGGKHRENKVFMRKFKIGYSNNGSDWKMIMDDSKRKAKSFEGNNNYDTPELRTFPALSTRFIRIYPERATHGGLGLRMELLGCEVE
molecule,measurement,setting,value
ranibizumab,"degree of neovascularization relative to vehicle group, in words",[1],the same degree of neovascularization
same,distribution in cross-section of the ocular retinal tissue,[2],mostly present near the sclera
same,vascular leakage compared to the vehicle group,vascular leakage,somewhat reduced
same,time to reach the retinal tissue after eye drops,[3],3 to 7 days
same,inhibition of (neo)vascularization in comparison with the vehicle group,[4],about 31%
same,"neovessel reducing efficacy, in words",[5],no significant efficacy
same,patients with macular degeneration showing response,macular degeneration; at the time of development,about 90%
same,"responding patients showing a therapeutic effect, such as eyesight improvement","macular degeneration; human, in vivo",30%
conbercept,bioavailability at the time of applying eye drops,[6],less than 5%
aflibercept,increase in binding ability to VEGF-A,VEGF-A,100 fold
B1,Kd,neuropilin 1 (NRP 1),27.9 nM

# Source: patent US11738064B2, “Pharmaceutical composition for preventing and treating eye diseases, containing as active ingredient, fusion protein in which tissue-penetrating peptide and anti-vascular endothelial growth factor preparation are fused” (ILDONG PHARM CO., LTD., priority 2015, dated 2023)
